Reference: patent US8592417B2, “2-substituted-6-heterocyclic pyrimidone derivatives as tau protein kinase 1 inhibitors” (Mitsubishi Tanabe Pharma Corporation, priority 2006, dated 2013)

Molecular target: T1, bovine cerebral TPK1 (Bos taurus, UniProt A0A3Q1MT31)
T1 construct: bovine cerebral TPK1; from tissue; host or cells: bovine brain (cerebrum)
Assay: Inhibitory activity against P-GS1 phosphorylation by bovine cerebral TPK1
Assay type: biochemical
Conditions: 41.7 μM [γ-32P] ATP, 25° C. for 2 hours
Method: Inhibitory Activity of the Medicament of the Present Invention Against P-GS1 Phosphorylation by Bovine Cerebral TPK1
A mixture containing 100 mM MES-sodium hydroxide (pH 6.5), 1 mM magnesium acetate, 0.5 mM EGTA, 5 mM β-mercaptoethanol, 0.02% Tween 20, 10% glycerol, 12 μg/ml P-GS1, 41.7 μM [γ^−32P] ATP (68 kBq/ml), bovine cerebral TPK1 and a compound shown in Table (a final mixture contained 1.7% DMSO deriving from a solution of a test compound prepared in the presence of 10% DMSO) was used as a reaction system. The phosphorylation was started by adding ATP, and the reaction was conducted at 25° C. for 2 hours, and then stopped by adding 21% perchloric acid on ice cooling. The reaction mixture was centrifuged at 12,000 rpm for 5 minutes and adsorbed on P81 paper (Whatmann), and then the paper was washed four times with 75 mM phosphoric acid, three times with water and once with acetone. The paper was dried, and the residual radioactivity was measured using a liquid scintillation counter.

T1 sequence (A0A3Q1MT31 1-419): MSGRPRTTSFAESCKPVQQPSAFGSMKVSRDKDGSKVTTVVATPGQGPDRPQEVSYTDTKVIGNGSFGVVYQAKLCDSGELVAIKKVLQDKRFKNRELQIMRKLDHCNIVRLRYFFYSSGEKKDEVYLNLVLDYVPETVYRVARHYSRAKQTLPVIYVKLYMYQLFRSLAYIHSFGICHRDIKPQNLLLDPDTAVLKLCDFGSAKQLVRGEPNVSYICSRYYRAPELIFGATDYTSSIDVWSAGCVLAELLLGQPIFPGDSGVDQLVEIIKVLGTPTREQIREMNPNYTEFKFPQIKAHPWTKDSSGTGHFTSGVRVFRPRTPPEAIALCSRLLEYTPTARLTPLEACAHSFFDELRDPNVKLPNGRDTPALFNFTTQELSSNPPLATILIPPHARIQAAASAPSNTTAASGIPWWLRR

SMILES | IC50 [nM]
O=c1cc(-c2ccncn2)nc(N2CCO[C@@H](c3ccc(F)cc3)C2)[nH]1 [Compound 2, 2-[(2S)-2-(4-Fluorophenyl)morpholin-4-yl]-1H-[4,4′]bipyrimidinyl-6-one] | 86.3
O=c1cc(-c2ccncc2F)nc(N2CCO[C@@H](c3ccc(F)cc3)C2)[nH]1 [Compound 3, 2-[(2S)-2-(4-Fluoro-phenyl)-morpholin-4-yl]-6-(3-fluoro-pyridin-4-yl)-3H-pyrimidin-4-one] | 59.8
